Assay [1] has as its system spontaneously hypertensive rats. Put plainly: Spontaneously Hypertensive Rat Test (Test 3). It counts as in vivo. Particulars: 100 mg/kg body weight, four male spontaneously hypertensive rats, indirect tail-cuff method. As for the experimental part: Alternatively, one may evaluate the calcium antagonist activity of a test compound by measuring the displacement of nitrendipine to calcium channel antagonist receptors by the test compound according to the methods of Bolger, et al., Biochem. Biophys. Res. Comm., 104(4), 1604-1609 (1982) and Ehlert, et al., Life Sciences, 30, 2191-2202 (1982). In such a test, the amount of specifically-bound nitrendipine to rabbit heart is determined in the presence and absence of test compound. The percent nitrendipine displacement is directly related to the efficacy of the test compound as a calcium antagonist. This assay is described below as the "Nitrendipine Binding Assay". […] Circ. J., 270, 282 (1963). The general techniques for conducting such tests are disclosed in B. Vagnovsky "Automatic Blood-Pressure Measurements in Small Animals", American Laboratory, April, 1973, and "Techniques for the Measurement of Blood Pressure", Institute of Laboratory Animal Resouces NEWS, Vol. XIX (3), G 11-12, Spring, 1976. In this test a group of four male spontaneously hypertensive rats having systolic blood pressures greater than 150 mm Hg are used for each test compound. Systolic blood pressure is measured by the indirect method using a tail-cuff. The compounds are administered at a dose of 100 mg/kg body weight, and the average of the peak decrease in blood pressure is calculated for the four rats. Test results for exemplary compounds of Formula I are provided in Table I below, in which the Rabbit Potassium Depolarized Blood Vessel Test is called "Test 2", the Nitrendipine Binding Assay is called "Test 1" and the Spontaneously Hypertensive Rat test is called "Test 3".

For assay [2], the target named is calcium channel antagonist receptors (rabbit heart) (Oryctolagus cuniculus, UniProt P15381). As to the kind of experiment: Nitrendipine Binding Assay (Test 1). More on the design: species or system rabbit (female New Zealand white). Particulars: 3H-nitrendipine (0.05-0.50 nM), rabbit heart membrane, 90 min at 4° C., pH 7.4; read-out: Test 1 (IC50): concentration required to achieve 50% displacement of specifically-bound nitrendipine.

In assay [3] the test system is vascular smooth muscle tissue from the rabbit aorta. As to the kind of experiment: Rabbit Potassium Depolarized Blood Vessel Test (Test 2). The class given is cell-based. The note with it: Oryctolagus cuniculus, 10 min; test compound 10^-6 M, 10 minute exposure, 30 mM potassium chloride, rabbit aorta strips, 37° C.; read-out: Test 2 (% Inhibition) of potassium-induced contraction. The source says: This tissue can be made to contract when exposed to a depolarizing solution containing an elevated potassium ion concentration and normal amounts of calcium ions. A test compound added to the solution produces a dose-dependent relaxation of the contracted rabbit aortic tissue which gives an indication of calcium antagonist activity of the test compound. This test is described below as the "Rabbit Potassium Depolarized Blood Vessel Test".
In the Rabbit Potassium Depolarized Blood Vessel Test, rabbits are killed by cervical dislocation, and the thoracic aorta is removed. Helical strips, approximately 30-40 mm in length, are cut from the aorta and are suspended in tissue baths of oxygenated Krebs bicarbonate buffer at 37° C. under a resting tension of 4 g. After an equilibration period of approximately 1-2 hours, the strips are challenged with a 30 mM potassium chloride solution and the peak contraction is measured. Following measurement of the peak contraction, the strips are washed and re-equilibrated for an hour in oxygenated Krebs bicarbonate buffer. After the re-equilibration of the aorta strips, the test compound was added to the bath at a concentration of 10-^6 M and the strips were allowed to stand for 10 minutes. After the 10 minute exposure to the test compound, the tissue strips were rechallenged with 30 mM potassium chloride solution and the maximum contraction was measured. The specificity of any inhibition of contraction is determined by addition of 10 mM phenylephrine.
The percent inhibition of contraction is calculated from the formula: […]
where CT is the peak contraction in the presence of the test compound and Cc is the peak contraction without test compound.
Test results for exemplary compounds of Formula I are provided in Table I below, in which the Rabbit Potassium Depolarized Blood Vessel Test is called "Test 2", the Nitrendipine Binding Assay is called "Test 1" and the Spontaneously Hypertensive Rat test is called "Test 3".

Chain of calcium channel antagonist receptors (rabbit heart) (P15381 whole entry, other chains not shown): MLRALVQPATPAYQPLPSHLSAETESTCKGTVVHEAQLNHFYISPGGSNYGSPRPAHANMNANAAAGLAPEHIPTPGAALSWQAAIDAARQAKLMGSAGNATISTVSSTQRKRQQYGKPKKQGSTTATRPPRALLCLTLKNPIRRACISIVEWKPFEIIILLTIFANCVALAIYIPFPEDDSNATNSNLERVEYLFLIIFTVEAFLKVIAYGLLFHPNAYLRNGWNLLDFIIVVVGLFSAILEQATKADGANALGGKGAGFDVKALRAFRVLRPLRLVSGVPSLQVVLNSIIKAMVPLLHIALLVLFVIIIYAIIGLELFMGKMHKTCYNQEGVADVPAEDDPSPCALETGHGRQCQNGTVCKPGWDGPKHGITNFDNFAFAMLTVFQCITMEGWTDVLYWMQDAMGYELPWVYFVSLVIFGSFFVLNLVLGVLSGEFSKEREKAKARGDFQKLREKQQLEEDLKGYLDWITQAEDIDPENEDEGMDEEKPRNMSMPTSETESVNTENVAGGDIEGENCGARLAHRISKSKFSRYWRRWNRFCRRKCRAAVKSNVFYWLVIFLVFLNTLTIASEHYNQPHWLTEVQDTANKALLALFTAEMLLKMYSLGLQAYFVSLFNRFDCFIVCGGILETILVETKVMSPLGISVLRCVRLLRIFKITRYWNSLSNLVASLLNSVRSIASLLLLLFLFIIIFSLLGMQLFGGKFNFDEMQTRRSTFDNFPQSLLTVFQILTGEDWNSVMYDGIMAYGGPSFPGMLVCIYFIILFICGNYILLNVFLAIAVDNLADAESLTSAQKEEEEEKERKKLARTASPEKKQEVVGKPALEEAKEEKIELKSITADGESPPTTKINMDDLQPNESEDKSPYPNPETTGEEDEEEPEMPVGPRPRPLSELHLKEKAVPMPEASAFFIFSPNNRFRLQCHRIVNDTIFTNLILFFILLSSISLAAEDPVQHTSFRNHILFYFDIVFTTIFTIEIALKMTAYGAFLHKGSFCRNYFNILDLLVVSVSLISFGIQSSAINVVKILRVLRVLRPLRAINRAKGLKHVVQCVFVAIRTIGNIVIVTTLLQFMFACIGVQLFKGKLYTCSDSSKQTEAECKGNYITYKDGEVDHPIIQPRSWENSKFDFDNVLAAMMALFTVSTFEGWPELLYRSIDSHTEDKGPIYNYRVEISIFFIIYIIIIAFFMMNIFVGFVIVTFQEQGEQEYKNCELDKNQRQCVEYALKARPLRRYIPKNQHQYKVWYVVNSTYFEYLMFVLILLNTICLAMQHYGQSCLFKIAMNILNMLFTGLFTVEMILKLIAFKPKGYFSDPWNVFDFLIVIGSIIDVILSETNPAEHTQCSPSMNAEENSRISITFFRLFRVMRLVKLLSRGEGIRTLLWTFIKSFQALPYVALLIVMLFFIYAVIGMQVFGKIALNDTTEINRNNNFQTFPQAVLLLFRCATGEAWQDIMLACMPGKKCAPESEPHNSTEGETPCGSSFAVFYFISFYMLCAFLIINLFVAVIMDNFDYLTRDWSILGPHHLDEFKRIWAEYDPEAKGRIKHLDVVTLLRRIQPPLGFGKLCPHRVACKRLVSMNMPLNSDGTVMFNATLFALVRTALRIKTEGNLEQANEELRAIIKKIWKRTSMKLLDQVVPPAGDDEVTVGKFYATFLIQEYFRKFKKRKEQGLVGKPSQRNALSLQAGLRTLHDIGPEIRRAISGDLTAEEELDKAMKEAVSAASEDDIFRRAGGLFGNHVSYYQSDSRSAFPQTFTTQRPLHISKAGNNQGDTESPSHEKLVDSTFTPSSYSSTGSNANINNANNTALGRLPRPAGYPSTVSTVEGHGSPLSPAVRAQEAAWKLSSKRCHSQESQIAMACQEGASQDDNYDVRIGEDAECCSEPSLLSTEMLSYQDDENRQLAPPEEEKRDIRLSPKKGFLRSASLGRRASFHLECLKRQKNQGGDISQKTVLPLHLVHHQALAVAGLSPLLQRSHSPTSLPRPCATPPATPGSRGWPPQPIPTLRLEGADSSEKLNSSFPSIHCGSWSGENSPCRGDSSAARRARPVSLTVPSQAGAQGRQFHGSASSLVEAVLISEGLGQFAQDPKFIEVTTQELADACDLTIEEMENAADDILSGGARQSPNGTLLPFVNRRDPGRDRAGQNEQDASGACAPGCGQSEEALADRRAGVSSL
Chain of calcium channel antagonist receptors (rabbit heart) (P13806 27-960 partner limits assumed, other chains not shown): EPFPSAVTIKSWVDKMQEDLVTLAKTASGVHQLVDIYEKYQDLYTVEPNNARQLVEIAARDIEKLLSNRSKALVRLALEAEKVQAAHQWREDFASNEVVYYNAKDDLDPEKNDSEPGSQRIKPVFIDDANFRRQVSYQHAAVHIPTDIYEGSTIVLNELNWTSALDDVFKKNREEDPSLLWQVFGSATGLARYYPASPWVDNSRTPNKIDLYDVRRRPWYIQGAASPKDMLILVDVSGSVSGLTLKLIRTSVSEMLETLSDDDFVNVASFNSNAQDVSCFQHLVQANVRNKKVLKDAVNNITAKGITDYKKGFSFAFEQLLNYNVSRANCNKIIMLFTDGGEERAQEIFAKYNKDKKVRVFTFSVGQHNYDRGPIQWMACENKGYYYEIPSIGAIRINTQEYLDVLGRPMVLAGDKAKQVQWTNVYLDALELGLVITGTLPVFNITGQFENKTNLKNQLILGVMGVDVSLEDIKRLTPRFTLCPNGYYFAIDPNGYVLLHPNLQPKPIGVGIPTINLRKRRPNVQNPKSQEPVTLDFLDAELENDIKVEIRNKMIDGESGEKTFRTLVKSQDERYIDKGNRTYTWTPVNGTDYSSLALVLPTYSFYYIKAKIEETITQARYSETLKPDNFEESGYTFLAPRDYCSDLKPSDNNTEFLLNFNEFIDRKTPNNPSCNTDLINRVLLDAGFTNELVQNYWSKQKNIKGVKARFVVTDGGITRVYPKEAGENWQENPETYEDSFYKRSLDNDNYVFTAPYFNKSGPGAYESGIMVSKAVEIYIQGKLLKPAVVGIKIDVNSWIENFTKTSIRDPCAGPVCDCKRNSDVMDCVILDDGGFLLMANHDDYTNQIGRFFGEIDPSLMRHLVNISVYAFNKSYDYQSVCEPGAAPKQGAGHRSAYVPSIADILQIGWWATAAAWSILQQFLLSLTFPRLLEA
Chain of calcium channel antagonist receptors (rabbit heart) (P13806 961-1106 partner limits assumed, other chains not shown): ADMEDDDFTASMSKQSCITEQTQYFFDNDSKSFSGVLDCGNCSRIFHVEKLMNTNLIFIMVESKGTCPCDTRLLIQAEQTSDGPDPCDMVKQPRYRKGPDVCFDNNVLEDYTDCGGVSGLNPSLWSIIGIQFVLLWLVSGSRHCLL

Consider `CC1=C(C(=O)OCCN(C)Cc2ccccc2)C(c2cccc([N+](=O)[O-])c2)c2c(n(C)c(=O)n(C)c2=O)N1` (stereo not drawn) [IV], for which, in assay [1], the “Test 3 (mmHg, 100 mpk): average of the peak decrease in systolic blood pressure” value is given as -28 mmHg. Moreover, the IC50 in assay [2] stood at 230 nM. For the same molecule, in assay [3], the inhibition at 1 µM was determined as 44%.

A word on the inhibition: it is the percentage by which the read-out fell short of the control.
